The source of these data is US8512694B2, “Method of producing rough strains of bacteria and uses thereof” (priority 2005, dated 2013).

The test system of this test is Mycobacterium obuense type strain ATCC 27023. As to the kind of experiment: Growth of Mycobacterium obuense on Middlebrook 7H11 medium with different Dapsone concentrations.

SMILES strings stand for the structures. Entries after “also recorded” stand apart in the source; their conditions may differ.

Procedure: Mycobacterium obuense type strain ATCC 27023 was grown Middlebrook 7H11 medium comprising different concentrations of Dapsone™.

For the molecule `Nc1ccc(S(=O)(=O)c2ccc(N)cc2)cc1` [Dapsone ™, 4,4′-Diaminodiphenyl sulfone], the Observed growth by setting is: (Experiment 2 part a, 5 μg Dapsone/ml Middlebrook 7H11 medium) 3 smooth colonies; (Experiment 2 part a, 10 μg Dapsone/ml Middlebrook 7H11 medium) “no growth”; (Experiment 2 part a, 20 μg Dapsone/ml Middlebrook 7H11 medium) “no growth”; (Experiment 2 part a, 40 μg Dapsone/ml Middlebrook 7H11 medium) “no growth”; (Experiment 2 part a, 50 μg Dapsone/ml Middlebrook 7H11 medium) “no growth”; (Experiment 2 part b, 3 μg Dapsone/ml Middlebrook 7H11 medium) “confluent smooth colonies”. The Observed growth entry is “small smooth colonies” (Experiment 2 part b, 4 μg Dapsone/ml Middlebrook 7H11 medium); “small smooth colonies” (Experiment 2 part b, 5 μg Dapsone/ml Middlebrook 7H11 medium); “few rough colonies,; also recorded: mostly smooth colonies” (Experiment 2 part c, 5 μg Dapsone/ml Middlebrook 7H11 medium); “few rough colonies,; also recorded: mostly smooth colonies” (Experiment 2 part c, 7.5 μg Dapsone/ml Middlebrook 7H11 medium); “mostly rough colonies” (Experiment 2 part c, 10 μg Dapsone/ml Middlebrook 7H11 medium); “mostly rough colonies” (Experiment 2 part c, 12 μg Dapsone/ml Middlebrook 7H11 medium).
